In patent US20260083125A1, “METHODS FOR MANAGING HERBICIDE VAPORIZATION” (AgQuam R&D, LLC, priority 2016, published 2026):

Assays:
[1] = Lecithin addition to sulfuric acid, urea sulfate and AQ 216 (lecithin stability); assay type: physicochemical; conditions: for Notes (result of lecithin addition): on addition
From the text: Lecithin is known to be unstable in a sulfuric acid environment. […] For each reaction with urea sulfate and AQ 216, the urea sulfate was mixed thoroughly or AQ 216 was mixed thoroughly, before the addition of the lecithin composition.

Wheat = assay: Greenhouse study for weed control, wheat; assay type: in vivo; conditions: Glyphosate 0.375 lb/acre; AMS 17 lb/100 gal; NIS, AQ 284, AQ 268 […] v/v; INTERLOCK 4 fl oz/acre
Procedure: (§1) A greenhouse study was conducted to test the efficacy of the AQ 284 combination water conditioning adjuvant and drift reduction composition compared to the commercial standard (INTERLOCK). Greenhouse research was conducted with individual plants growing in 3×3×3 inch pots. Greenhouse treatments were applied with a track sprayer using an 8002 E single nozzle applying 20 gpa.

Corn = assay: Greenhouse study for weed control, corn; assay type: in vivo; conditions: Glyphosate 0.375 lb/acre; AMS 17 lb/100 gal; NIS, AQ 284, AQ 268 […] v/v; INTERLOCK 4 fl oz/acre
Procedure: as §1

Corn, Sunflower, Wheat = assay: Greenhouse study for weed control, average of corn, sunflower and wheat; assay type: in vivo; conditions: Glyphosate 0.375 lb/acre; AMS 17 lb/100 gal; NIS, AQ 284, AQ 268 […] v/v; INTERLOCK 4 fl oz/acre
Procedure: as §1

Sunflower = assay: Greenhouse study for weed control, sunflower; assay type: in vivo; conditions: Glyphosate 0.375 lb/acre; AMS 17 lb/100 gal; NIS, AQ 284, AQ 268 […] v/v; INTERLOCK 4 fl oz/acre
Procedure: as §1

[2] = lecithin composition AIRLINK 50 mL
[3] = lecithin composition LI 700 50 mL
[4] = lecithin composition LIBERATE 50 mL

Row | SMILES | reaction with lecithin compositions ([1]; 50 mL of each of the lecithin compositions, equivalent amount of sulfuric acid (3 mL)) | Time 1 hour [1, 2] | Time 12 Hours [1, 2] | Notes (result of lecithin addition) ([1]; lecithin composition AIRLINK 50 mL, 3 mL sulfuric acid or 6 mL urea sulfate / AQ 216) | Time 1 hour [1, 3] | Time 12 Hours [1, 3] | Notes (result of lecithin addition) [1, 3] | Time 1 hour [1, 4] | Time 12 Hours [1, 4] | Notes (result of lecithin addition) [1, 4] | Wheat % Control 18 Days After Application (Wheat) [%] | Corn % Control 18 Days After Application (Corn) [%] | Average % Control 18 Days After Application (Corn, Sunflower, Wheat) [%] | Sunflower % Control 18 Days After Application (Sunflower) [%]
1 | O=S(=O)(O)O [Sulfuric Acid] | forming a precipitate | More precipitate | More precipitate | Dark Precipitate | More precipitate | More precipitate | Dark Precipitate | More precipitate | More precipitate | Dark Precipitate | – | – | – | –
2 | O=C(O)CNCP(=O)(O)O [Glyphosate, N-phosphonomethylglycine] | – | – | – | – | – | – | – | – | – | – | 15.0 | 10.0 | 13.3 | 15.0
